# Reference: patent publication US12258328B2, “6-membered heteroaryl-containing aminopyridine compounds as EGFR inhibitors” (YUHAN CORPORATION, priority 2021, dated 2025)
# Where two headings read alike, the source gives them in different places.
# Experiments:
# [1] = target: EGFR L858R/C797S (Homo sapiens, UniProt P00533, C797S/L858R); test: Biochemical EGFR kinase assay (Lance Ultra TR-FRET), double mutant L858R/C797S
# Procedure, shortened: (§1)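 In this biochemical assay, phosphorylation after a one-hour room-temperature reaction was detected with europium-labelled anti-phosphopeptide antibody at 2 nM final concentration.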
# [2] = target: EGFR del19/C797S (Homo sapiens, UniProt P00533, C797S/DEL746-750); test: Biochemical EGFR kinase assay (Lance Ultra TR-FRET), double mutant del19/C797S
# EGFR del19/C797S, sequence (P00533 with tags, fused parts or gaps DEL746-750/C797S): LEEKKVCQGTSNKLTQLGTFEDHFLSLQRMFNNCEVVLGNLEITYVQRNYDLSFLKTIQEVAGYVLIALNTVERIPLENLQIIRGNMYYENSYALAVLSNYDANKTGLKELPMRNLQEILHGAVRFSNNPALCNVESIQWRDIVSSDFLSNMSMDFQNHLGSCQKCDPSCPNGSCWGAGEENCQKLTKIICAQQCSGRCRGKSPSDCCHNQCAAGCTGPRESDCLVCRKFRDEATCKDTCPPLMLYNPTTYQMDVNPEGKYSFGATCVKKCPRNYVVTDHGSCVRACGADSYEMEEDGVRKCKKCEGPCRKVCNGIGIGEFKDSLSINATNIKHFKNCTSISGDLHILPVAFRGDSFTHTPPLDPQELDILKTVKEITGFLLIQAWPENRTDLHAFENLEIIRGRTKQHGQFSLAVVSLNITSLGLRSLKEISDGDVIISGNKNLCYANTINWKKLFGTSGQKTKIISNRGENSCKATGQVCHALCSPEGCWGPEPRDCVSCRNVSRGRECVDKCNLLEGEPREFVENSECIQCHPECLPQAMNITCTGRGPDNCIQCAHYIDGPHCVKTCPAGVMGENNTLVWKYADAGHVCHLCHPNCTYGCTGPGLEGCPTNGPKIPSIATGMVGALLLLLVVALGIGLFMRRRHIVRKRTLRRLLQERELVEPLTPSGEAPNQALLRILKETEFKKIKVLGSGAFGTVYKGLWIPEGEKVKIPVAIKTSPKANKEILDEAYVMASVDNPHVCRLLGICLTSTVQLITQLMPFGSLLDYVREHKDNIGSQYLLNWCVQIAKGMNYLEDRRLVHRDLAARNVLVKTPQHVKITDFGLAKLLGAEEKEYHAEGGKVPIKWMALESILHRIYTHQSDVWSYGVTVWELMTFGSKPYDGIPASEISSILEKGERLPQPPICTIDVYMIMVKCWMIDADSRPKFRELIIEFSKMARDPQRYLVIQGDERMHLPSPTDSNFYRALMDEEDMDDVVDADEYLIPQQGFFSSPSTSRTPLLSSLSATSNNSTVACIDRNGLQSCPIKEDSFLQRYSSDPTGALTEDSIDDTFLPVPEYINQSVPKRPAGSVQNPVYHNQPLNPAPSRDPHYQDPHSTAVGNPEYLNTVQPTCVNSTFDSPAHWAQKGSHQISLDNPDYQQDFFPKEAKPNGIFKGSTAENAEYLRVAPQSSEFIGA
# Procedure, shortened: as §1
# [3] = target: EGFR L858R/T790M/C797S (Homo sapiens, UniProt P00533, C797S/L858R/T790M); test: Biochemical EGFR kinase assay (Lance Ultra TR-FRET), triple mutant L858R/T790M/C797S
# EGFR L858R/T790M/C797S, sequence (P00533 25-1210 T790M/C797S/L858R): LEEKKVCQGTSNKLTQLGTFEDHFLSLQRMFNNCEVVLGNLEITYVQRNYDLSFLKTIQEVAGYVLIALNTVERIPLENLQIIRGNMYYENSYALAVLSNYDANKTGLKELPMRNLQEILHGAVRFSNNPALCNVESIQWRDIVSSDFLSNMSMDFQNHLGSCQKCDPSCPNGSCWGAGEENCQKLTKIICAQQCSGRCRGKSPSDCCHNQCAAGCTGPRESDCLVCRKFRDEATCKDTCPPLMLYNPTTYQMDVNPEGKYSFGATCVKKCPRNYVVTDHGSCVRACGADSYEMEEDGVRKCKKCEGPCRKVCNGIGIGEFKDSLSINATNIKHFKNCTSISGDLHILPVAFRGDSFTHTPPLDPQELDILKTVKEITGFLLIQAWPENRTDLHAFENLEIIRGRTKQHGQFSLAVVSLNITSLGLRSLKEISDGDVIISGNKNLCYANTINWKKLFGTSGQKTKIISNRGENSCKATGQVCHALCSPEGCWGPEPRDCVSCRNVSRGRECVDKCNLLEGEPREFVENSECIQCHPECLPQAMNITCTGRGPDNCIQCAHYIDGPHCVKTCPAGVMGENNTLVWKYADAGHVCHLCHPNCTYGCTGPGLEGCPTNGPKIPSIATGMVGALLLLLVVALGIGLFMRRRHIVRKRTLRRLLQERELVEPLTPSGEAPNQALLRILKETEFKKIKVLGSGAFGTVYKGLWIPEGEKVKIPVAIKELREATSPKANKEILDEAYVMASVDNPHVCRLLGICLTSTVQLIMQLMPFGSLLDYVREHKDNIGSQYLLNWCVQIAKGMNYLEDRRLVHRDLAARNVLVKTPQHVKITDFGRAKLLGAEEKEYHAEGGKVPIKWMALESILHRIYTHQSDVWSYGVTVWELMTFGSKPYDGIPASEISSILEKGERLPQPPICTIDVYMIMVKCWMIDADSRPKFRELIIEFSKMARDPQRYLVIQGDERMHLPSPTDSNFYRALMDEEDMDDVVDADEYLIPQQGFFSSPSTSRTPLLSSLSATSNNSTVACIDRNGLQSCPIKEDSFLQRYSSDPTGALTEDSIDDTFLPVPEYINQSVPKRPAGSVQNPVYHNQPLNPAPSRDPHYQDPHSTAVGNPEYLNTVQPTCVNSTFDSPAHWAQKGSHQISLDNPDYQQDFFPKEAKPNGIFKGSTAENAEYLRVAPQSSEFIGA
# Procedure, shortened: as §1
# [4] = target: EGFR wildtype (Homo sapiens, UniProt P00533); test: Biochemical EGFR kinase assay (Lance Ultra TR-FRET), wildtype
# EGFR wildtype, sequence (P00533 25-1210): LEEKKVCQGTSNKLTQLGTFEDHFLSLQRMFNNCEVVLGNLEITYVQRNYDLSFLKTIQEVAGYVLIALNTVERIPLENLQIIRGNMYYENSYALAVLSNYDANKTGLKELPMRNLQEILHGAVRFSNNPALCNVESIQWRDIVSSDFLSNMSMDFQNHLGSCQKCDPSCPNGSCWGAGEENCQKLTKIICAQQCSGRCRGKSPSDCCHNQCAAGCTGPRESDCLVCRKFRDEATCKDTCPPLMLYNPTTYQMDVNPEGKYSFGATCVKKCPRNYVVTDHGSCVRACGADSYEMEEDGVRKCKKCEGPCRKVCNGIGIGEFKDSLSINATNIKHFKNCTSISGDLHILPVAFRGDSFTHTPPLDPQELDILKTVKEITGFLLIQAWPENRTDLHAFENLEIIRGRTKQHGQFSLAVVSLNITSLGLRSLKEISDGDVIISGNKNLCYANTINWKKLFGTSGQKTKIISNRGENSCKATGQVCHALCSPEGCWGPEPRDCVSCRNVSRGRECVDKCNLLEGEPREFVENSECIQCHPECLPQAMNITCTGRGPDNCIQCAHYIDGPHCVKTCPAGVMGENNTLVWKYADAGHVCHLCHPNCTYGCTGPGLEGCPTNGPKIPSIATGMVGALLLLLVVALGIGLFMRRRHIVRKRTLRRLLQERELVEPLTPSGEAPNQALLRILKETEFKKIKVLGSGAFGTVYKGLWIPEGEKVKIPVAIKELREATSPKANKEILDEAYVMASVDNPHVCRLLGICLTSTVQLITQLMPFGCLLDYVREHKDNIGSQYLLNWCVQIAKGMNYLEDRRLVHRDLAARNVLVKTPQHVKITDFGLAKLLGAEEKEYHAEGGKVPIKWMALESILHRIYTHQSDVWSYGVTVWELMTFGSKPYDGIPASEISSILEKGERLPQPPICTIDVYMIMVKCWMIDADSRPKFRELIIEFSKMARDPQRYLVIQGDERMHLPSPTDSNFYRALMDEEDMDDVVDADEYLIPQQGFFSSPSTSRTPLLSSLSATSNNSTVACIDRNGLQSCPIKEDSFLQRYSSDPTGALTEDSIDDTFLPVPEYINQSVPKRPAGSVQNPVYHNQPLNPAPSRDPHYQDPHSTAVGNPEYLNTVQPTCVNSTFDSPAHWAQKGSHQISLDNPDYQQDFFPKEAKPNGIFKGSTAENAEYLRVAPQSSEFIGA
# Procedure, shortened: as §1
# [5] = target: EGFR del19/T790M/C797S (Homo sapiens, UniProt P00533, C797S/DEL746-750/T790M); test: Biochemical EGFR kinase assay (Lance Ultra TR-FRET), triple mutant del19/T790M/C797S
# Procedure, shortened: as §1
# [6] = IC50 L858R/C797S (nM) 100 μM ATP, 100 μM ATP
# [7] = Km ATP, read-out: IC50 L858R/C797S (nM) Km ATP
# [8] = IC50 del19/C797S (nM) 100 μM ATP, 100 μM ATP
# [9] = Km ATP, read-out: IC50 del19/C797S (nM) Km ATP
# [10] = IC50 L858R/T790M/C797S (nM) 100 μM ATP, 100 μM ATP
# [11] = Km ATP, read-out: IC50 L858R/T790M/C797S (nM) Km ATP
# [12] = IC50 WT (nM) 100 μM ATP, 100 μM ATP
# [13] = IC50 del19/T790M/C797S (nM) 100 μM ATP, 100 μM ATP
# [14] = Km ATP, read-out: IC50 del19/T790M/C797S (nM) Km ATP
# [15] = Km ATP, read-out: IC50 WT (nM) Km ATP
# [16] = ATP at Km, read-out: IC50 L858R/C797S, Km ATP
# [17] = ATP at Km, read-out: IC50 del19/C797S, Km ATP
# [18] = ATP at Km, read-out: IC50 L858R/T790M/C797S, Km ATP
# [19] = IC50 L858R/T790M/C797S, 100 μM ATP
# [20] = ATP at Km, read-out: IC50 WT, Km ATP
# [21] = ATP at Km, read-out: IC50 del19/T790M/C797S, Km ATP
# [22] = IC50 del19/T790M/C797S, 100 μM ATP
# EGFR L858R/C797S, sequence (P00533 25-1210 C797S/L858R): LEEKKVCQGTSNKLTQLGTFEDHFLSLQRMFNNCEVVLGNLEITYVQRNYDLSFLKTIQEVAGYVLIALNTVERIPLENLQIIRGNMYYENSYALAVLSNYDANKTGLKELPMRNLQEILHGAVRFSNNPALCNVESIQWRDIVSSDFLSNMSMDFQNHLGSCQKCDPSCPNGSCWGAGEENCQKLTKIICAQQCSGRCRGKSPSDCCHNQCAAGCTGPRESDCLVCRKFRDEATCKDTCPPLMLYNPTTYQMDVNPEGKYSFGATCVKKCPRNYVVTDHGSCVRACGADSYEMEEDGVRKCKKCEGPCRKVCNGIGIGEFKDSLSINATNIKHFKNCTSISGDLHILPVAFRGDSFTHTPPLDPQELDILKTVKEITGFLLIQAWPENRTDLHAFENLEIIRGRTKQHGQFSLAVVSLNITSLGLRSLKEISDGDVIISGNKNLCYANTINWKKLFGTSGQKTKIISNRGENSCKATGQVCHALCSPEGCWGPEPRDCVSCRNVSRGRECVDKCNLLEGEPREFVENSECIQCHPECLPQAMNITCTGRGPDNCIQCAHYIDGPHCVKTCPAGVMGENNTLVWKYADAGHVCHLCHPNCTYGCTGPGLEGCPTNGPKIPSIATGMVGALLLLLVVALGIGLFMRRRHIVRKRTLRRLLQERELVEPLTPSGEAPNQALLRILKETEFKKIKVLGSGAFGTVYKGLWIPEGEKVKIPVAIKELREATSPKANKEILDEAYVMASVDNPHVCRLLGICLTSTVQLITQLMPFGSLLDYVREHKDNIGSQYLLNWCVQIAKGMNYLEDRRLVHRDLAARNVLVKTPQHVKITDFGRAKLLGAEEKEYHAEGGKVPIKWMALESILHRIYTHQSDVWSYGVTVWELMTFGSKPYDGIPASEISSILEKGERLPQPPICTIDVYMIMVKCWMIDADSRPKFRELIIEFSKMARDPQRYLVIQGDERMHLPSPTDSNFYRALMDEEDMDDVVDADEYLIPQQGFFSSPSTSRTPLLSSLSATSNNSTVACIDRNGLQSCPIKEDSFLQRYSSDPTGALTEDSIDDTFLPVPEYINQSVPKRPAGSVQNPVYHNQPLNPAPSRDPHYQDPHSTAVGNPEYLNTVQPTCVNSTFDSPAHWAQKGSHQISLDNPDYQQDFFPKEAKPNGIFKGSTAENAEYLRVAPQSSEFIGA
Structure (SMILES),"IC50 [1, 6]","IC50 [1, 7]","IC50 [2, 8]","IC50 [2, 9]","IC50 [3, 10]","IC50 [3, 11]","IC50 [4, 12]","IC50 [5, 13]","IC50 [5, 14]","IC50 [4, 15]","IC50 [1, 16]","IC50 ([1]; IC50 L858R/C797S, 100 μM ATP)","IC50 [2, 17]","IC50 ([2]; IC50 del19/C797S, 100 μM ATP)","IC50 [3, 18]","IC50 [3, 19]","IC50 [4, 20]","IC50 ([4]; IC50 WT, 100 μM ATP)","IC50 [5, 21]","IC50 [5, 22]"
"CC(C)(O)c1cnc(-c2cnc(Nc3ccnc(-c4cnn(S(=O)(=O)C5CC5)c4)n3)cc2N[C@H]2CC[C@@](C)(O)CC2)cn1 [Example 118, (1s,4s)-4-((2-((2-(1-(Cyclopropylsulfonyl)-1H-pyrazol-4-yl)pyrimidin-4-yl)amino)-5-(5-(2-hydroxypropan-2-yl)pyrazin-2-yl)pyridin-4-yl)amino)-1-methylcyclohexan-1-ol]",0.7 nM,0.05 nM,0.3 nM,0.1 nM,0.2 nM,0.1 nM,400 nM,0.04 nM,0.1 nM,–,–,–,–,–,–,–,–,–,–,–
"CC(=O)c1cccc(-c2cnc(Nc3ccnc(-c4cnn(S(=O)(=O)C5CC5)c4)n3)cc2N[C@H]2CC[C@@](C)(O)CC2)n1 [Example 18, 1-(6′-((2-(1-(Cyclopropylsulfonyl)-1H-pyrazol-4-yl)pyrimidin-4-yl)amino)-4′-(((1s,4s)-4-hydroxy-4-methylcyclohexyl)amino)-[2,3′-bipyridin]-6-yl)ethan-1-one]",113 nM,–,8.7 nM,–,3.1 nM,–,> 10000 nM,0.7 nM,–,–,–,–,–,–,–,–,–,–,–,–
"CN1CCN(c2ccc(-c3cnc(Nc4ccnc(-c5cnn(S(=O)(=O)C6CC6)c5)n4)cc3N[C@H]3CC[C@@](C)(O)CC3)nc2)CC1 [Example 83, (1s,4s)-4-((6′-((2-(1-(Cyclopropylsulfonyl)-1H-pyrazol-4-yl)pyrimidin-4-yl)amino)-5-(4-methylpiperazin-1-yl)-[2,3′-bipyridin]-4′-yl)amino)-1-methylcyclohexan-1-ol]",0.4 nM,0.1 nM,0.2 nM,0.2 nM,0.3 nM,0.2 nM,24.9 nM,0.6 nM,0.7 nM,0.2 nM,–,–,–,–,–,–,–,–,–,–
"C[C@]1(O)CC[C@@H](Nc2cc(Nc3ccnc(-c4cnn(S(=O)(=O)C5CC5)c4)n3)ncc2-c2cc(CN3CCC(F)(F)CC3)ccn2)CC1 [Example 112, (1s,4s)-4-((6′-((2-(1-(Cyclopropylsulfonyl)-1H-pyrazol-4-yl)pyrimidin-4-yl)amino)-4-((4,4-difluoropiperidin-1-yl)methyl)-[2,3′-bipyridin]-4′-yl)amino)-1-methylcyclohexan-1-ol]",6.9 nM,6.8 nM,23.2 nM,5.1 nM,3.6 nM,2 nM,> 10000 nM,5.7 nM,4.5 nM,11.7 nM,–,–,–,–,–,–,–,–,–,–
"CN1CCN(c2ccc(-c3cnc(Nc4ccnc(-c5cnn(S(=O)(=O)C6CC6)c5)n4)cc3N[C@H]3CC[C@@H](CO)CC3)nc2)CC1 [Example 85, ((1s,4s)-4-((6′-((2-(1-(cyclopropylsulfonyl)-1H-pyrazol-4-yl)pyrimidin-4-yl)amino)-5-(4-methylpiperazin-1-yl)-[2,3′-bipyridin]-4′-yl)amino)cyclohexyl)methanol]",0.2 nM,0.1 nM,0.3 nM,0.1 nM,0.3 nM,0.1 nM,31.7 nM,0.4 nM,0.4 nM,0.2 nM,–,–,–,–,–,–,–,–,–,–
"CN(C)C(=O)[C@H]1CC[C@@H](Nc2cc(Nc3ccnc(-c4cnn(S(=O)(=O)C5CC5)c4)n3)ncc2-c2ccc(C(C)(C)O)cn2)CC1 [Example 172, (1s,4s)-4-((6′-((2-(1-(Cyclopropylsulfonyl)-1H-pyrazol-4-yl)pyrimidin-4-yl)amino)-5-(2-hydroxypropan-2-yl)-[2,3′-bipyridin]-4′-yl)amino)-N,N-dimethylcyclohexane-1-carboxamide]",–,–,–,–,–,–,–,–,–,–,1.3 nM,4.8 nM,0.3 nM,0.8 nM,0.2 nM,0.2 nM,0.4 nM,93.2 nM,0.7 nM,0.6 nM
"CN(C)Cc1ccnc(-c2cnc(Nc3ccnc(-c4cnn(S(=O)(=O)C5CC5)c4)n3)cc2N[C@H]2CC[C@@](C)(O)CC2)c1 [Example 64, (1s,4s)-4-((6′-((2-(1-(Cyclopropylsulfonyl)-1H-pyrazol-4-yl)pyrimidin-4-yl)amino)-4-((dimethylamino)methyl)-[2,3′-bipyridin]-4′-yl)amino)-1-methylcyclohexan-1-ol]",0.9 nM,0.2 nM,0.2 nM,–,0.3 nM,0.1 nM,1170 nM,0.1 nM,0.1 nM,2.4 nM,–,–,–,–,–,–,–,–,–,–
"O=S(=O)(C1CC1)n1cc(-c2nccc(Nc3cc(NC4CCC(F)CC4)c(-c4ccc(N5CCC(F)(F)CC5)nn4)cn3)n2)cn1 (stereo not drawn) [Example 267, N^2-(2-(1-(Cyclopropylsulfonyl)-1H-pyrazol-4-yl)pyrimidin-4-yl)-5-(6-(4,4-difluoropiperidin-1-yl)pyridazin-3-yl)-N^4-(4-fluorocyclohexyl)pyridine-2,4-diamine]",–,–,–,–,–,–,–,–,–,–,357 nM,–,82.1 nM,–,21.7 nM,–,2910 nM,–,15.4 nM,–
"C[C@]1(O)CC[C@@H](Nc2cc(Nc3ccnc(-c4cnn(S(=O)(=O)C5CC5)c4)n3)ncc2-c2cc(NCCCO)ccn2)CC1 [Example 282, (1s,4s)-4-((6′-((2-(1-(Cyclopropylsulfonyl)-1H-pyrazol-4-yl)pyrimidin-4-yl)amino)-4-((3-hydroxypropyl)amino)-[2,3′-bipyridin]-4′-yl)amino)-1-methylcyclohexan-1-ol]",–,–,–,–,–,–,–,–,–,–,–,7 nM,–,1.4 nM,–,0.4 nM,–,3970 nM,–,0.2 nM
"C[C@]1(O)CC[C@@H](Nc2cc(Nc3ccnc(-c4cnn(S(=O)(=O)C5CC5)c4)n3)ncc2-c2ccc(N3CCOCC3)nn2)CC1 [Example 43, (1s,4s)-4-((2-((2-(1-(Cyclopropylsulfonyl)-1H-pyrazol-4-yl)pyrimidin-4-yl)amino)-5-(6-morpholinopyridazin-3-yl)pyridin-4-yl)amino)-1-methylcyclohexan-1-ol]",1.6 nM,0.6 nM,0.5 nM,0.4 nM,2.7 nM,0.1 nM,1560 nM,2.5 nM,0.1 nM,2 nM,–,–,–,–,–,–,–,–,–,–
"CN1CCC(Oc2ccc(-c3cnc(Nc4ccnc(-c5cnn(CC(F)F)c5)n4)cc3NC3CCC(F)(F)C3)nc2)CC1 (stereo not drawn) [Example 138, N^4′-(3,3-Difluorocyclopentyl)-N^6′-(2-(1-(2,2-difluoroethyl)-1H-pyrazol-4-yl)pyrimidin-4-yl)-5-((1-methylpiperidin-4-yl)oxy)-[2,3′-bipyridine]-4′,6′-diamine]",–,1.6 nM,–,4.9 nM,–,0.2 nM,–,–,0.1 nM,32 nM,–,–,–,–,–,–,–,–,–,–
"CN(C)S(=O)(=O)n1cc(-c2nccc(Nc3cc(NC4CCC(C)(O)CC4)c(-c4ccc(C(C)(O)C(F)(F)F)cn4)cn3)n2)cn1 (stereo not drawn) [Example 298, 4-(4-((4′-(((1s,4s)-4-Hydroxy-4-methylcyclohexyl)amino)-5-(1,1,1-trifluoro-2-hydroxypropan-2-yl)-[2,3′-bipyridin]-6′-yl)amino)pyrimidin-2-yl)-N,N-dimethyl-1H-pyrazole-1-sulfonamide]",–,–,–,–,–,–,–,–,–,–,1.7 nM,–,2.9 nM,–,1.1 nM,–,15.4 nM,–,1.8 nM,–
